Reference: patent publication US20030017976A1, “Therapeutic properties of liposome-encapsulated immunomodulators” (priority 1998, published 2003)
Marks after values point to notes of the source that are not given here.

Key:
human blood monocytes = assay: ELISAs for TNF-α, IL-1β and IL-6 in human blood monocytes; assay type: cell-based
Method: Blood-cells buff coats were obtained on the day of collection from the Gulf Coast Regional Blood Center (Houston, Tex.). The buffy coats were diluted with HBSS and layered on to 15 ml of prescreened entotoxin-free lymphocyte separation medium (Ficoll-Hypaque; density: 1.077). After 10 min of centrigugation at 1500×g, the mononuclear fractions were collected, washed once, and resuspended in 20 ml of elutriation medium (2% human albumin-100 U/mi penicillin and 100 μg/ml streptomycin in PBS). Monocyte-rich fractions were isolated by countercurrent elutriation using a JE-6B elutriation rotator (B3eckman) as described in detail previously (Fidler, I. et al. Prog. Clin. Biol. Res. (1989) 288:169). At a speed of 3000 rpm and flow rate of 41 ml/min, the monocyte fraction was obtained; it contained >90-95% monocytes as identified by nonspecific esterase staining morphological examination; they were >95% viable as measured by the trypan blue exclusion test. The cells were incubated in serum-free EMEM for 18 h prior to assays.
After overnight incubation in serum-free EMEM, monocytes plated at the density of 1×10^5/38-mm^2well /200 μl of EMEM (96-well plates) were treated as indicated in the Results section. The culture supernatants were harvested and used immediately or stored at −70° C. The supernatants were diluted at 1:5 or 1:10 and assayed for cytokines using ELISA kits according to the manufacturer's instructions.

human monocytes [1] = assay: Northern blot of cytokine mRNA in monocytes; assay type: cell-based; settings: LPS 100 ng/ml, MLV-JBT3002 500 nmol/ml, JBT3002 1 ng/ml; 1-3 h
Method: Total RNA was extracted using Tri reagent™ kit according to the manufacturer's instructions (Molecular Research Center, Inc., Cincinnati, Ohio). […] Cytokine and GAPDH and mRNA were detected using cDNA probes of Human TNF-α, IL-1β, IL-6 and rat glyceraldehyde-3-phosphate dehydrogenase (GAPDH) labeled by nick translation with α-^32P-CTP. Hybridizations were performed as described (Dong, Z. et al. J Natl. Cancer Inst. (1994) 86:913).

CT-26P colon carcinoma = assay: Combination therapy of CT-26P colon carcinoma with CPT-11 and oral liposomal JBT3002; assay type: in vivo, mouse; settings: day 17
Method: This course of therapy was repeated weekly for about three weeks prior to tissue harvest. Experimental Groups/Procedures: 40 Balb/c mice were divided into 8 groups of 5 mice each. On day 0, the spleens of the mice were injected with 15,000 cultured CT-26P cells. The groups were then treated as follows: The spleens of Balb/c mice were injected with 15,000 cultured CT-26P colon carcinoma cells on day 0. […] Treated mice received two weeks of chemotherapy and three weeks of the macrophage activator. Tissues were harvested on day 17. The spleens and livers were weighed, the extent of metastasis was graded (denoted below) and histology prepared.

IL-15 [2] = assay: RT-PCR of IL-15 in PEM and IEC6 cells; assay type: cell-based
From the text: To determine whether macrophages or epithelial cells respond to JBT 3002 by upregulating IL-1 5, the RT-PCR technique was used and the results are shown in FIG. 23.

IL-15 [3] = assay: Ileum and liver lesion histology, BrdUrd and IL-15 expression after JBT 3002 and CPT-11; assay type: in vivo, mouse; settings: mouse, in vivo
Method: BALB/c mice were injected with CT-26 colon cancer cells into the spleen. […] Four days after the last injection of CPT-11, some mice were killed and their ileum was harvested and prepared for histology, immunohistochemistry, and molecular biology analyses.

human monocytes [4] = assay: Western blot of tyrosine phosphorylation, JNK1 band shift, MAP kinase activation in monocytes; assay type: cell-based; settings: 20 min
Method: After two washes with PBS containing 1 mM Na3 VO4 and 5 mM EDTA, the cells were scraped into 0.1 ml lysis buffer (1% Triton X-100, 20 mM Tris pH 8.0, 137 MM NaCl, 10% glycerol, 1 mM Na3 VO4, 2 mM EDTA, 1 mM PMSF, 20 μM leupeptin, 0.15 U/ml aprotinin). The lysate was placed on ice for 20 min and then centrifuged at 14,000 rpm for 10 min at 4° C. The samples (50 μg) were mixed with sample buffer (62.5 mM Tris/HCl, pH 6.8, 2.3% SDS, 100 mM DTT, and 0.05% bromophenol blue), boiled and, separated on 10% SDS-PAGE. The protein was then transferred onto 0.45 μm nitrocellulose membranes. The filter was blocked with 3% BSA and 1% ovalbumin (ICN Biomedicals, Inc.) in TBS (20 mM Tris/HCl, pH 7.5, 150 mM NaCl), probed with antibodies as indicated in the Results in TTBS (TBS containing 0.1% Tween 20), incubated with a second antibody in the buffer, and visualized by the ECL Western blotting detection system (Dong, Z., et al. J Exp. Med. (1993) 177:1071; Dong, Z. et al. J. Leukoc. Biol. (1993) 58:725).

CT-26 colon carcinoma = assay: Therapy of experimental liver metastasis of CT-26 colon carcinoma with CPT-11 and oral JBT 3002
[5] = Table 15, oral JBT 3002 0.05 μg/dose 3 consecutive days and/or CPT-11 100 mg/kg 4 daily i.p., day 21
[6] = Table 16, oral JBT3002 0.05 μg dose thrice weekly 3 weeks and/or CPT-11 100 mg/kg i.p. once a week, day 24

In the case of “N-hexadecanol-S-[2(R)-3-diodecanoyloxypropyl]-L-cysteinyl-L-alanyl-D-isoglutaminyl-glycyl-taurine sodium salt [JBT3002]”, the “incubation time at which TNF-α protein was detected” value (human blood monocytes; free-form JBT3002 1 ng/ml or MLV-JBT3002 100 nmol/well of 1 mg/300 μmol lipid) is reported as 2 h, the “concentration range inducing TNF-α production” value (human blood monocytes; monocytes treated for 8 h) is reported as 0.001 to 10 ng/mL and the “serum dependence of cytokine production” value (human blood monocytes; serum-free EMEM vs 5% FBS) is reported as “not significantly altered in the absence of serum”. The “mRNA for TNF-α, IL-1β, and IL-6” value (human monocytes [1]) was “High levels of mRNA for TNF-α, IL-1β, and IL-6”, the “Spleen Weights, mean” value (CT-26P colon carcinoma; oral JBT3002 1 μg/dose in PC liposomes 3x/week alone) was 1.137 ± 0.628 grams and the “Liver Weights, mean” value (CT-26P colon carcinoma; oral liposomal JBT3002 1 μg/dose 3x/week alone) was 1.842 ± 0.498 grams. For the same substance, the “IL-15 expression in response to JBT 3002 (RT-PCR)” value (IL-15 [2]) was “Peritoneal exudate macrophages (PEM), but not intestinal cells (IEC6), upregulate IL-15 expression”, the “expression of IL-15 in the ileum” value (IL-15 [3]) was “restores or augments this expression” and the “potency in triggering intracellular signaling pathways” value (human monocytes [4]) was “significantly more potent than LPS”. The “dose producing similar therapeutic effects as 1.0 μg/dose of MLV-JBT 3002” value (CT-26 colon carcinoma; Table 11) was 0.01 μg/dose, the “Liver metastasis Incidence” value (CT-26 colon carcinoma; [5]) was 9/10 and the Liver weight (CT-26 colon carcinoma; [5]) was 1.6 ± 0.2^e g. For the same substance, the “Spleen tumor Incidence” value (CT-26 colon carcinoma; [5]) was 10/10, the “Spleen tumor Mean tumor volume” value (CT-26 colon carcinoma; [5]) was 88 ± 34^f mm^3 and the “Liver metastasis Incidence” value (CT-26 colon carcinoma; [6]) was 9/10. The Liver weight (CT-26 colon carcinoma; [6]) was 4.2 ± 1.6 g, the “Spleen tumor Incidence” value (CT-26 colon carcinoma; [6]) was 8/10 and the “Spleen tumor Mean tumor volume” value (CT-26 colon carcinoma; [6]) was 241 ± 84 mm^3. The “potency relative to liposomal formulation” value (CT-26 colon carcinoma; Tables 12 and 14) was “more potent than liposomal formulation”.
